Like-named read-outs stand apart in the source and are kept apart here.
System: Aedes aegypti
Assay: Warm Body assay, mosquito landings on treated warm body
Format: in vivo
Conditions: for pest or weed control at 16 µg/mL / pest or weed control at 400 µg/mL / pest or weed control at 10000 µg/mL / pest or weed control at 1 % / pest or weed control at 0.0016 % / pest or weed control at 0.04 %: Aedes aegypti; for pest or weed control at 16 µg/mL / pest or weed control at 400 µg/mL / pest or weed control at 10000 µg/mL: read-out: Percentage of repellence of mosquitoes Aedes aegypti landing on the warm body; for pest or weed control at 1 % / pest or weed control at 0.04 %: read-out: repellence; for pest or weed control at 0.0016 %: read-out: reduce the number of mosquito landings
Protocol: The arthropod controlling effect according to the present invention is determined on mosquitoes using an adapted Warm Body assay as defined in Kröber T, Kessler S, Frei J, Bourquin M, Guerin PM. An in vitro assay for testing mosquito controlling compounds employing a warm body and carbon dioxide as a behavioral activator. J Am Mosq Control Assoc. 2010; 26: 381-386. Further information is provided in the accompanying examples
The controlling effect, repellence & spatial repellence, according to the present invention is determined by testing the Warm Body assay against the yellow fever mosquito, Aedes aegypti Rockefeller strain. […] Observations of controlling efficacy were made on host-seeking females of uniform age, 5 to 10 days old selected as mentioned in the publication mentioned hereinabove. Tested hungry females had access to 10% sugar solution but were not blood-fed. Further information is provided in the accompanying examples.
The published protocol has been adapted in not manually counting the landing mosquitoes but automatically using an automatic counting software, the switch from Anopheles gambiae to A. aegypti led to a decrease of mosquitoes' number placed in the tested cage due to the size difference (i.e. 30 mosquitoes instead of 50) and to an increase of lighting as A. aegypti is a diurnal mosquitoes (i.e. 150 lux instead of 4 lux). Further information is provided in the accompanying examples. […]
The controlling effect according to the present invention was assessed using an adapted Warm Body assay as defined in Kröber T, Kessler S, Frei J, Bourquin M, Guerin P M. 2010. J Am Mosq Control Assoc. 26: 381-386. In this in-vitro assay the number of mosquito landing on a warm body, simulating an attractive host treated with the tested stimuli, was measured in order to assess the repellence effect.
The published protocol has been adapted as the switch from Anopheles gambiae to Aedes aegypti led to a decrease of mosquitoes placed in the tested cage due to the size difference (i.e. 30 mosquitoes instead of 50) and to an increase of lighting since A. aegypti is a diurnal mosquitoes (i.e. 150 lux instead of 4 lux).
On the sandblasted glass Petri dish covering the warm body (28.3 cm^2), 100 μL of the compounds diluted at different concentrations in ethanol was applied. The number of mosquito landing on the warm body was counted for each stimulus and pure ethanol (solvent) as control.

[1] = highest tested concentration, 1% (Table 3)
[2] = lowest concentration of 0.0016% (Table 3)

COc1cccc(OC)c1OC [compound 1822, 1,2,3-trimethoxybenzene] gave a pest or weed control at 16 µg/mL (0.016 mg/mL (Table 3)) of 54%, a pest or weed control at 400 µg/mL (0.4 mg/mL (Table 3)) of 39% and a pest or weed control at 10000 µg/mL (10 mg/mL (Table 3)) of 100%. For the same molecule, the pest or weed control at 1 % [1] was over 90%, the pest or weed control at 0.0016 % [2] was over 50% and the “mosquito landing within the two minutes of experiments” value [1] was “protect the attractive stimulus for any mosquito landing”.
For COc1ccc2ccc(=O)oc2c1O [compound 1551, 8-hydroxy-7-methoxychromen-2-one], the pest or weed control at 16 µg/mL (0.016 mg/mL (Table 3)) was 55%, the pest or weed control at 400 µg/mL (0.4 mg/mL (Table 3)) was 42% and the pest or weed control at 10000 µg/mL (10 mg/mL (Table 3)) was 91%. It also gave a pest or weed control at 1 % [1] of over 90% and a pest or weed control at 0.0016 % [2] of over 50%.
With CCCc1ccc2c(c1)OCC(=O)CO2 [compound 465, 7-propyl-1,5-benzoodioxepin-3-one] the “Percentage of repellence of mosquitoes Aedes aegypti landing on the warm body” value (“Percentage” below) (0.016 mg/mL (Table 3)) was 4%, the “Percentage” value (0.4 mg/mL (Table 3)) was 36% and the “Percentage” value (10 mg/mL (Table 3)) was 87%.
COc1cc(C=O)cc(OC)c1OC [compound 2268, 3,4,5-trimethoxybenzaldehyde] gave a pest or weed control at 16 µg/mL of 59%, a pest or weed control at 400 µg/mL of 88% and a pest or weed control at 10000 µg/mL of 95%. The pest or weed control at 0.0016 % was over 50%, the pest or weed control at 0.04 % was over 75% and the pest or weed control at 1 % was over 90%.
For COc1ccc(C(C)=O)c(OC)c1OC [compound 2269, 1-(2,3,4-trimethoxyphenyl)ethanone], the pest or weed control at 16 µg/mL (0.016 mg/mL (Table 3)) was 18%, the pest or weed control at 400 µg/mL (0.4 mg/mL (Table 3)) was 70% and the pest or weed control at 10000 µg/mL (10 mg/mL (Table 3)) was 100%. For the same molecule, the pest or weed control at 1 % [1] was over 90% and the “mosquito landing within the two minutes of experiments” value [1] was “protect the attractive stimulus for any mosquito landing”.
Molecule COc1cc(C2CCCO2)ccc1O (stereo not drawn) [compound 1481, 2-methoxy-4-(oxolan-2-yl)phenol] has a pest or weed control at 16 µg/mL (0.016 mg/mL (Table 3)) of 21%, a pest or weed control at 400 µg/mL (0.4 mg/mL (Table 3)) of 89% and a pest or weed control at 10000 µg/mL (10 mg/mL (Table 3)) of 97%. For the same molecule, the pest or weed control at 1 % [1] was over 90% and the pest or weed control at 0.04 % (intermediate concentration of 0.04% (Table 3)) was over 75%.
For CC=Cc1cc(OC)ccc1OC [compound 1196, 1,4-dimethoxy-2-[1-propen-1-yl]benzene], the pest or weed control at 16 µg/mL was 57%, the pest or weed control at 400 µg/mL was 74% and the pest or weed control at 10000 µg/mL was 86%. For the same molecule, the pest or weed control at 0.0016 % was over 50%.
COc1cccc(OC)c1O [compound 2244, 2,6-dimethoxyphenol] showed a pest or weed control at 16 µg/mL (0.016 mg/mL (Table 3)) of 44%, a pest or weed control at 400 µg/mL (0.4 mg/mL (Table 3)) of 59% and a pest or weed control at 10000 µg/mL (10 mg/mL (Table 3)) of 85%.
In the case of CCOc1cc(C=O)ccc1OC(=O)C(C)C [compound 1469, (2-ethoxy-4-formylphenyl) 2-methylpropanoate], the pest or weed control at 16 µg/mL (0.016 mg/mL (Table 3)) is reported as 64%, the pest or weed control at 400 µg/mL (0.4 mg/mL (Table 3)) is reported as 65% and the pest or weed control at 10000 µg/mL (10 mg/mL (Table 3)) is reported as 95%. For the same molecule, the pest or weed control at 1 % [1] was over 90% and the pest or weed control at 0.0016 % [2] was over 50%.

Source: patent US20250113823A1, “Arthropod Control Compositions” (priority 2022, published 2025)
